Assay results: patent publication US9839618B2, “Compositions and methods relating to proliferative diseases” (The Penn State Research Foundation, priority 2010, dated 2017)

Columns and labels:
[1] = test system: melanoma cell lines (UACC 903, 1205Lu); assay: MTS assay, melanoma cell lines (cell line not given); assay type: cell-based, human; conditions: UACC 903 and 1205 Lu
Experimental: (§1) The mechanistic basis of leelamine's activity to inhibit melanoma cell growth is determined by examining the effect of leelamine on 1) cell viability using the MTS assay; 2) proliferation using a BrdU incorporation assay; 3) apoptosis using an assay for caspase-3/7 activity; and 4) cell cycle analysis. The MTS assay as described in Sharma, A. et al., Clin Cancer Res, 2009, 15:1674-85; and Madhunapantula, S. V. et al., Mol Cancer Ther, 2008, 7:1297-308 is used to assay cell viability. Rates of proliferation and apoptosis are measured by seeding 5×10^3 cells in 96-well plates, followed by treatment with 0.62 to 10 μmol/L of leelamine for 24 hours. Proliferating and apoptotic cells are quantified using a colorimetric cell proliferation ELISA BrdU kit (Roche diagnostics, Indianapolis, Ind.) or Apo-ONE Homogenous caspase-3/7 assay kit (Promega, Madison, Wis.), respectively, as described in Sharma, A. et al., Clin Cancer Res, 2009, 15:1674-85; and Madhunapantula, S. V. et al., Mol Cancer Ther, 2008, 7:1297-308.
Dehydroabietylamine, its N-substituted derivatives and the corresponding dihydroabietylamine and its N-substituted derivatives are tested for their capability to inhibit cell growth of cancer cell lines, including melanoma (UACC 903, 1205Lu), breast (MCF-7), fibrosarcoma (HT-1080), colon (Caco-2), and prostate (PC-3) cancer cell lines. Viability and IC50 of normal human fibroblasts and cell lines from melanoma and other malignancies following treatment with all the agents are measured using the MTS assay (Promega, Madison, Wis.). Human fibroblast FF2441 cells, metastatic melanoma cell lines 1205 Lu and UACC 903 as well as cancer cell lines representing sarcoma (HT-1080), prostate (PC-3, LNCaP), breast (MCF-7) and lung (A-549) are maintained in DMEM (Invitrogen, Carlsbad, Calif.) supplemented with 10% FBS (Hyclone, Logan, Utah) in a 5% CO2 atmosphere, humidified 37° C. incubator. 5×10^3 cells per well in 100 μL of media are plated and grown in a 96-well plate for 48 to 72 h and treated with either DMSO vehicle control or 0.62 to 40 μmol/L for 24, 48 or 72 h. IC50 values for each compound in […] for respective cell lines are measured from three independent experiments using GraphPad Prism version 4.01 (GraphPad Software, La Jolla, Calif.). FIG. 52 is a graph showing IC50 values for leelamine and compounds 4a, 4b and 5a in treated fibroblasts (FF2441) compared to melanoma cells. Selectivity ratio here is defined as ratio of activity against fibroblasts compared to activity against melanoma cells. Leelamine is relatively selective with a ratio of >6 and >4 for UACC903 and 1205Lu melanoma cells. The selectivity ratio of compound 4a is ˜4 and ˜3 for UACC903 and 1205Lu and for compound 4b is ˜4 for both cell lines. The selectivity ratio of compound 5a is ˜4 for UACC903 and >2 for 1205Lu cells.

[2] = test system: UACC 903 and 1205 Lu cells; assay: BrdU incorporation proliferation assay; assay type: cell-based, human; conditions: 0.62 to 10 μmol/L, 24 hours
Experimental: as §1

[3] = test system: UACC 903 and 1205 Lu melanoma cells; assay: Cell cycle analysis (propidium iodide, FACScan); assay type: cell-based, human; conditions: 2 or 3 μmol/L, 24 h
Experimental: Analysis of the effects of leelamine on cell cycle is performed by growing UACC 903 and 1205 Lu melanoma cells in 100-mm culture dishes followed by treatment with 2 or 3 μmol/L of leelamine for 24 h. Total floating and adherent cells are collected following trypsinization and stained using 1 mL propidium iodide solution containing 100 μg/mL propidium iodide; (Sigma, St Louis, Mo.), 20 μg/mL Ribonuclease A (Roche diagnostics, Indianapolis, Ind.) and 3 μg/mL Triton X-100 dissolved in 0.1% (W/V) sodium citrate for 30 m at 4° C. Stained cells are analyzed using the FACScan analyzer (Becton Dickinson, Franklin lakes, NJ) and data processed utilizing ModFit LT software (Verity Software House, Topsham, Me.) as described in Sharma, A. et al., Clin Cancer Res, 2009, 15:1674-85; and Madhunapantula, S. V. et al., Mol Cancer Ther, 2008, 7:1297-308.

[4] = Toxicity assessment of leelamine; assay type: in vivo, Swiss Webster mice
Experimental: To assess toxicity, Swiss Webster (n=5) mice are intraperitoneally injected with 5 or 10 mg/kg body weight leelamine or with vehicle control (DMSO) every day for 4 weeks. Animals are weighed daily to ascertain the toxicity leading to changes in body weight. Blood is collected by cardiac puncture at the end of treatment and analyzed for the levels of ALP (alkaline phosphatase), ALT (alanine aminotransferase), AST (aspartate aminotransferase), CK (creatine kinase), CREA (creatinine) and GLU (glucose), parameters indicative of organ related toxicity, following systemic administration of 10-mg/Kg-body weight of leelamine, shown in FIG. 11. […] Vital organs including liver, spleen, kidney, intestine, lung and heart from control and experimental animals are collected at the end of the test period, formalin fixed, paraffin-embedded, hematoxylin/eosin stained and analyzed microscopically for changes in cellular morphology or tissue architecture as described in Sharma, A. et al., Clin Cancer Res, 2009, 15:1674-85; and Madhunapantula, S. V. et al., Mol Cancer Ther, 2008, 7:1297-308.

[5] = i.p. 10 mg/kg daily for 4 weeks

Compound	anti-cancer activity / viability of melanoma cell lines, in words [1]	proliferation (BrdU incorporation) [2]	cell cycle distribution [3]	blood ALP, ALT, AST, CK, CREA, GLU [4, 5]	histology of liver, spleen, kidney, intestine, lung, heart [4, 5]	body weights ([4]; i.p. 5 or 10 mg/kg every day for 4 weeks)
CC(C)C1=CC2=CCC3[C@](C)(CCC[C@@]3(C)C(=O)O)C2CC1 (stereo partly drawn) [Abietic acid, (1R,4aR)-1,4a-dimethyl-7-(propan-2-yl)-1,2,3,4,4a,4b,5,6,10,10a-decahydrophenanthrene-1-carboxylic acid, reference compound]	no anti-cancer activity	–	–	–	–	–
CC(C)c1ccc2c(c1)CCC1[C@](C)(CN)CCC[C@]21C (stereo partly drawn) [Leelamine, [(1R,4aS)-1,4a-dimethyl-7-(propan-2-yl)-1,2,3,4,4a,9,10,10a-octahydrophenanthren-1-yl]methanamine]	effectively inhibits the viability	decrease proliferation	increased percentage of sub-G0-G1 and G0/G1 cell populations, with a corresponding decrease in S-phase population	No significant differences	did not significantly alter cell morphology or overall structure	no significant differences
